Data taken from the NIST ThermoML archive (doi:10.1016/j.jct.2008.03.008).
± gives the expanded uncertainty stated by the source.

Assay: molar enthalpy of vaporization or sublimation
Details: 298.15 K, Liquid

| molar enthalpy (Vacuum sublimation drop method) [kcal/mol] | molar enthalpy (Flow calorimetry) [kcal/mol] | SMILES |
| --- | --- | --- |
| 13.6 ± 1.15 |  | CC(=O)c1sccc1C [2-acetyl-3-methylthiophene] |
|  | 15.1 ± 1.24 | CC(=O)c1cc(C)cs1 [2-acetyl-4-methylthiophene] |
|  | 14.8 ± 1.24 | CC(=O)c1ccc(C)s1 [2-acetyl-5-methylthiophene] |
